Values joined by “and” are separate entries in the source; they are usually repeats but may differ in a detail not shown here. Equal values may be shown once. Marks after values point to notes of the source that are not given here.
Experiments:
[1] = meso linkage is not cleaved by biological amines or thiols; cited from earlier work
[2] = Antibody conjugate absorbance and fluorescence; assay type: physicochemical; conditions: value used in degree of labeling calculation
Description: Antibody Conjugate Absorbance. Absorbance spectra of goat IgG antibody bioconjugates were collected in buffer B (575 mM NaCl, 37.5 mM NaH2PO4 and 0.75 mM EDTA in water, pH 7.5) using Implen NanoPhotometer NP80. Spectra were normalized to absorbance at 280 nm.
Antibody Conjugate Fluorescence. […] The fluorescence emission spectra were divided by the fluorescence emission intensity at 355 nm (ex: 280 nm, slit width: 2 nm) to obtain corrected spectra that accounts for variations in antibody concentration.

[3] = molecular target: T1, bovine serum albumin (BSA) (Bos taurus, UniProt P02769); assay: Albumin binding, quenching of BSA tryptophan fluorescence
T1 construct: a solution of bovine serum albumin (BSA, 2 μM) at 37° C; purchased
T1 sequence (P02769 25-607): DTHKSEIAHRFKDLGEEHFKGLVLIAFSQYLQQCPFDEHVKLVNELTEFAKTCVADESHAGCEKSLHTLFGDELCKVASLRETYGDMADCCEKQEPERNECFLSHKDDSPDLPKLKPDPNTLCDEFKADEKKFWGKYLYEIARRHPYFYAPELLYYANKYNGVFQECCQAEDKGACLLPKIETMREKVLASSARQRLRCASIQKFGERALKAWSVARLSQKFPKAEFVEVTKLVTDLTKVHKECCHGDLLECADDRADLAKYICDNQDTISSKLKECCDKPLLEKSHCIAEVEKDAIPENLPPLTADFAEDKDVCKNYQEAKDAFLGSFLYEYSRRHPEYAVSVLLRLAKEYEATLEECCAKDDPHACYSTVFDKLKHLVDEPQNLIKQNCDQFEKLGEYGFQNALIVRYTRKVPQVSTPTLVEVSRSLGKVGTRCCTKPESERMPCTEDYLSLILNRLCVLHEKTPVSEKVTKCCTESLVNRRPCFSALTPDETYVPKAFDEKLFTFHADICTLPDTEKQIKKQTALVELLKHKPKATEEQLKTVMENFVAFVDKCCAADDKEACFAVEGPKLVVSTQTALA
Description: FIG. 13. […] The relative fluorescence intensity at 335 nm was determined using the following equation, where F0 is the initial fluorescence intensity, F is the fluorescence intensity after each aliquot addition of dye, and the slope of the trend line (m) corresponds to Ka±SD.
Albumin Binding Measurements. Two separate sets of titration experiments were performed. The first set of titration experiments measured quenching of bovine serum albumin (BSA) tryptophan fluorescence as dye was added incrementally. […] After each aliquot addition, the solution was mixed and allowed to equilibrate for 5 min before spectral acquisition.

[4] = Dye self-aggregation by absorption/excitation spectra; assay type: physicochemical; conditions: in water / aqueous media, absorption spectra
[5] = molecular target: T1, bovine serum albumin (BSA); assay: Albumin binding, dye fluorescence with and without BSA; conditions: PBS, presence and absence of BSA (2 μM)
[6] = Quantum yield and fluorescence brightness relative to UL766; assay type: physicochemical
Excerpt: The fluorescence spectrum of each solution was obtained with excitation at 730 nm, and the integrated area was used in the quantum yield calculation by the following equation:
[formula] where η is the refractive index of the solvent, I is the integrated fluorescence intensity, and A is the absorbance at a chosen wavelength. […]

[7] = Absorption and emission spectral properties of dyes; assay type: physicochemical; conditions: for λabs max: monomer (m) band where an aggregate band is also listed
Description: General. Reagents and solvents were purchased from Sigma-Aldrich, VWR, Oakwood, Thermo Fisher and TCI and used without further purification unless stated otherwise. Anhydrous tetrahydrofuran was distilled with metal sodium and benzophenone. Column chromatography was performed using Biotage SNAP Ultra columns. ^1H, ^13C and ROESY NMR spectra were recorded on a Bruker 500 NMR spectrometer. Chemical shifts are presented in ppm and referenced by residual solvent peak. High-resolution mass spectrometry (HRMS) was performed using a time-of-flight (TOF) analyzer with electrospray ionization (ESI). Absorption spectra were recorded on an Evolution 201 UV/vis spectrometer with Thermo Insight software. Fluorescence spectra were collected on a Horiba Fluoromax-4 fluorometer with FluoroEssence software. Analyte solutions were prepared in HPLC grade water (Sigma-Aldrich), phosphate buffered saline (Thermo Fisher), fetal bovine serum (Sigma-Aldrich) or buffer B (575 mM NaCl, 37.5 mM NaH2PO4 and 0.75 mM EDTA in water, pH 7.5). All absorption and fluorescence spectra were collected using quartz cuvettes (1 mL, 1 cm path length; for emission and excitation spectra, slit width=3 nm).

[8] = Water solubility and storage of aqueous stock solutions; assay type: physicochemical; conditions: 1 mM in water
[9] = Photostability, Xenon lamp irradiation; assay type: physicochemical
Description: FIG. 2. Two separate photostability studies. (a) Lamp irradiation: Four separate cuvettes, each containing 1 μM dye in PBS buffer, pH 7.4, were irradiated by a 150 W Xenon lamp with a 620 nm long-pass filter. The plot of normalized dye absorbance versus time was fit to a one-phase exponential decay. […] The length scale bar on each NIR fluorescence image is 1 cm.
Photostability Measurements. Lamp Irradiation: A solution of dye (1 μM) in PBS buffer, pH 7.4, was placed in a 1×1×4 cm^3 cuvette that was exposed to air and irradiated at a distance of 3 cm by a 150 W Xenon lamp with a 620 nm long-pass filter. An absorbance spectrum was recorded every 10 min. The normalized maximum absorbance of dye was plotted against time and fitted to a non-linear regression, one-phase exponential decay. […] A 1.5 mL vial containing the solution was irradiated at a distance of 3 cm by a 150 W Xenon lamp with a 620 nm long-pass filter.

- ϵmax for the monomer peak [2]: 111,000 M^−1 cm^−1
- Ka relative to Ka for BSA association with ICG [3]: about 40 times lower
- Ka for BSA ([3]; BSA 2 μM, 37° C., tryptophan fluorescence quenching): 16000 M⁻¹
- Dye/BSA affinity ([3]; tryptophan quenching titration): weak dye/BSA affinity
- Effect of BSA on dye fluorescence [5]: no effect on the dye fluorescence
- Brightness (fluorescence brightness = ε × QY) ([6]; PBS pH 7.4, error ±15%): 9,600
- QY ([6]; PBS pH 7.4, relative to UL766, error ±10%): 0.097
- Quantum yield ([6]; pH 7.4 PBS, relative to UL766, error ±10%): 9.7^[b] %
- SS (Stokes shift) ([7]; 2 μM BSA in pH 7.4 PBS): 18 nm
- ε ([7]; 2 μM BSA in pH 7.4 PBS): 107,000 M^−1cm^−1
- λabs max, aggregate (a) band ([7]; 2 μM BSA in pH 7.4 PBS): 681 (a)/ nm
- λem max ([7]; 2 μM BSA in pH 7.4 PBS): 773 nm
- λabs max ([7]; 2 μM BSA in pH 7.4 PBS): 755 (m) nm
- SS (Stokes shift) ([7]; 100% FBS): 16 nm
- ε ([7]; 100% FBS): 118,000 M^−1cm^−1
- λabs max, aggregate (a) band ([7]; 100% FBS): 682 (a)/ nm
- λem max ([7]; 100% FBS): 774 nm
- λabs max ([7]; 100% FBS): 758 (m) nm
- SS (Stokes shift) ([7]; H2O): 17 nm
- ε ([7]; H2O): 56,000 M^−1cm^−1
- λabs max, aggregate (a) band ([7]; H2O): 681 (a)/ nm
- λem max ([7]; H2O): 773 nm
- λabs max ([7]; H2O): 756 (m) nm
- SS (Stokes shift) ([7]; PBS pH 7.4): 17 nm
- λabs max, aggregate (a) band ([7]; PBS pH 7.4, room temperature): 681 (a)^[f] nm and 681 (a)/ nm
- λem max ([7]; PBS pH 7.4, room temperature): 773 nm
- λabs max ([7]; PBS pH 7.4, room temperature): 756 (m)^[f] nm and 756 (m) nm
- Storage of 1 mM stock solution in water [8]: forms a precipitate after 24 hr
- k, rate constant of first-order decay ([9]; pH 7.4 PBS, 150 W Xenon lamp irradiation, 620 nm long-pass filter, 23° C., 1 μM dye): 0.00037 s⁻¹
- Order of photostabilities ([9]; separate cuvettes, dye in PBS, Xenon lamp >620 nm): s775z>756z>UL766>ICG
Structure (SMILES): CC1(C)C(/C=C/C2=C(c3ccc(C(=O)O)cc3)C(=C/C=C3/N(CCC[N+](C)(C)C)c4ccc(S(=O)(=O)O)cc4C3(C)C)/CCC2)=[N+](CCC[N+](C)(C)C)c2ccc(S(=O)(=O)O)cc21 [Dye 756z]
- Stable to nucleophiles [1]: Yes
- Aggregation state [4]: exists largely as non-fluorescent H-aggregates
- ε ([7]; PBS pH 7.4, room temperature, monomer band): 99,000 (0.942)^[b] M^−1cm^−1 and 99,000 M^−1cm^−1
